In patent US9416124B2, “Substituted 2-alkyl-1-OXO-N-phenyl-3-heteroaryl-1,2,3,4-tetrahydroisoquinoline-4-carboxamides for antimalarial therapies” (ST. JUDE CHILDREN'S RESEARCH HOSPITAL, priority 2011, dated 2016):
Read-outs that look alike come from different tables or passages of the source.

Test system: P. falciparum 3D7
Assay: P. falciparum drug susceptibility assay (3D7)
Type: cell-based, Plasmodium falciparum
Description: Parasites were grown as previously described in Mallari, J. P., Guiguemde, W. A., and Guy, R. K., Antimalarial activity of thiosemicarbazones and purine derived nitriles, Bioorg Med Chem Lett 19 (13), 3546 (2009). […] DMSO inhibitor stock solutions were pin-transferred (V&P Scientific) into the assay plate and background fluorescence was measured in both relevant channels (485 nm /535 nm, 612 nm /665 nm) in an Envision plate reader (PerkinElmer). Then 20 μl of a synchronized culture suspension (1% rings, 10% hematocrit) were added per well, thus making a final hematocrit and parasitemia of 5% and 1% respectively. Assay plates were incubated for 72 h and parasitemia was determined based on a modified protocol. (Smilkstein, M. et al., Simple and inexpensive fluorescence-based technique for high-throughput antimalarial drug screening. Antimicrob Agents Chemother 48 (5), 1803 (2004)). Briefly, 5 μl of mixed DNA dye solution in RPMI (5X SYBR Green I, 1 μM YOYO-3, 1% v/v Triton X-100, 1 mg/ml saponin) were added per well, assay plates were shaken for 30 s at 2000 rpm, incubated in the dark for 4 h, then read as previously described.

[1] = Plasmodium falciparum, 3D7 strain, racemate unless indicated, read-out: 3D7_EC50
[2] = 3D7 strain, racemate unless indicated, read-out: 3D7_EC50

Structure (SMILES) | EC50 [1] | further results
Cn1cc([C@@H]2[C@@H](C(=O)Nc3cc(F)cc(C#N)c3)c3ccccc3C(=O)N2CC(F)(F)F)cn1 (racemic) [Example 22, N-(3-cyano-5-fluorophenyl)-3-(1-methyl-1H-pyrazol-4-yl)-1-oxo-2-(2,2,2-trifluoroethyl)-l,2,3,4-tetrahydroisoquinoline-4-carboxamide] | 9 nM | 
CC(C)CN1C(=O)c2ccc(F)cc2[C@H](C(=O)Nc2cccc(C#N)c2)[C@H]1c1cnn(C)c1 (racemic) [Example 47, N-(3-cyanophenyl)-6-fluoro-2-isobutyl-3-(1-methyl-1H-pyrazol-4-yl)-1-oxo-1,2,3,4-tetrahydroisoquinoline-4-carboxamide] | 7 nM | 
CC(C)CN1C(=O)c2ccccc2[C@H](C(=O)Nc2ccc(F)c(OC(F)(F)F)c2)[C@H]1c1cnn(C)c1 (racemic) [Example 33, N-(4-fluoro-3-(trifluoromethoxy)phenyl)-2-isobutyl-3-(1-methyl-1H-pyrazol-4-yl)-1-oxo-1,2,3,4-tetrahydroisoquinoline-4-carboxamide] | 17 nM | 
CC(C)CN1C(=O)c2ccccc2[C@H](C(=O)Nc2cccc(OC(F)(F)F)c2)[C@H]1c1cn[nH]c1 (racemic) [Example 25, 2-isobutyl-1-oxo-3-(1H-pyrazol-4-yl)-N-(3-(trifluoromethoxy)phenyl)-1,2,3,4-tetrahydroisoquinoline-4-carboxamide] | 11 nM | 
N#Cc1cc(F)cc(NC(=O)C2c3ccccc3C(=O)N(CC(F)(F)F)C2c2cn[nH]c2)c1 (single isomer, unassigned; isomer d) [Example 20 d-isomer, d-N-(3-cyano-5-fluorophenyl)-1-oxo-3-(1H-pyrazol-4-yl)-2-(2,2,2-trifluoroethyl)-1,2,3,4-tetrahydroisoquinoline-4-carboxamide] |  | EC50 [2]: 8 nM; EC50 (separated enantiomers, assayed as described in 4a, read-out: Potency (nM, 3D7 strain)): 11 nM
CC(C)CN1C(=O)c2ccccc2[C@H](C(=O)Nc2cc(Cl)cc(C#N)c2)[C@H]1c1cn[nH]c1 (racemic) [Example 7, N-(3-chloro-5-cyanophenyl)-2-isobutyl-1-oxo-3-(1H-pyrazol-4-yl)-1,2,3,4-tetrahydroisoquinoline-4-carboxamide] | 3 nM | 
O=C(Nc1ccc(F)c(OC(F)(F)F)c1)[C@H]1c2ccccc2C(=O)N(CC(F)(F)F)[C@@H]1c1cn[nH]c1 (racemic) [Example 32, N-(4-fluoro-3-(trifluoromethoxy)phenyl)-1-oxo-3-(1H-pyrazol-4-yl)-2-(2,2,2-trifluoroethyl)-1,2,3,4-tetrahydroisoquinoline-4-carboxamide] | 22 nM | 
CC(C)CN1C(=O)c2ccccc2[C@H](C(=O)Nc2cc(F)cc(C#N)c2)[C@H]1c1cn[nH]c1 (racemic) [Example 19, N-(3-cyano-5-fluorophenyl)-2-isobutyl-1-oxo-3-(1H-pyrazol-4-yl)-1,2,3,4-tetrahydroisoquinoline-4-carboxamide] | 4 nM | 
N#Cc1cc(Cl)cc(NC(=O)[C@H]2c3ccccc3C(=O)N(CC(F)(F)F)[C@@H]2c2cn[nH]c2)c1 (racemic) [Example 8, N-(3-chloro-5-cyanophenyl)-1-oxo-3-(1H-pyrazol-4-yl)-2-(2,2,2-trifluoroethyl)-1,2,3,4-tetrahydroisoquinoline-4-carboxamide] | 26 nM | 
O=C(Nc1cccc(OC(F)(F)F)c1)[C@H]1c2ccccc2C(=O)N(CC(F)(F)F)[C@@H]1c1cccnc1 (racemic) [Example 30, 1-oxo-3-(pyridin-3-yl)-2-(2,2,2-trifluoroethyl)-N-(3-(trifluoromethoxy)phenyl)-1,2,3,4-tetrahydroisoquinoline-4-carboxamide] | 25 nM | 
N#Cc1cccc(NC(=O)[C@H]2c3ccccc3C(=O)N(CC(F)(F)F)[C@@H]2c2cn[nH]c2)c1 (racemic) [Example 14, N-(3-cyanophenyl)-1-oxo-3-(1H-pyrazol-4-yl)-2-(2,2,2-trifluoroethyl)-1,2,3,4-tetrahydroisoquinoline-4-carboxamide] | 30 nM | 
N#Cc1cc(NC(=O)C2c3ccccc3C(=O)N(CC(F)(F)F)C2c2cccnc2)ccc1F (single isomer, unassigned; isomer d) [Example 6 d-isomer, d-N-(3-cyano-4-fluoro) -1-Oxo-3-pyridin-3-yl-2-(2,2,2-trifluoro-ethyl)-1,2,3,4-tetrahydro-isoquinoline-4-carboxamide] |  | EC50 [2]: 17 nM; EC50 (separated enantiomers, assayed as described in 4a, listed as 6 d, read-out: Potency (nM, 3D7 strain)): 15 nM
N#Cc1cc(NC(=O)C2c3ccccc3C(=O)N(CC(F)(F)F)C2c2cccnc2)ccc1F (single isomer, unassigned) [Example 6 l-isomer, l-N-(3-cyano-4-fluoro)-1-Oxo-3-pyridin-3-yl-2-(2,2,2-trifluoro-ethyl)-1,2,3,4-tetrahydro isoquinoline-4-carboxamide] |  | EC50 (separated enantiomers, assayed as described in 4a, listed as 6 l, read-out: Potency (nM, 3D7 strain)): 477 nM
CC(C)CN1C(=O)c2ccc(F)cc2[C@H](C(=O)Nc2cc(F)cc(C#N)c2)[C@H]1c1cnn(C)c1 (racemic) [Example 48, N-(3-cyano-5-fluorophenyl)-6-fluoro-2-isobutyl-3-(1-methyl-1H-pyrazol-4-yl)-1-oxo-1,2,3,4-tetrahydroisoquinoline-4-carboxamide] | 19 nM | 
N#Cc1cc(NC(=O)C2c3ccccc3C(=O)N(CC(F)(F)F)C2c2cn[nH]c2)ccc1F (single isomer, unassigned) [Example 2 l-isomer] |  | EC50 (separated enantiomers, assayed as described in 4a, listed as 2 l, read-out: Potency (nM, 3D7 strain)): 303 nM
N#Cc1cc(F)cc(NC(=O)[C@H]2c3ccccc3C(=O)N(CC(F)(F)F)[C@@H]2c2cccnc2)c1 (racemic) [Example 24, N-(3-cyano-5-fluorophenyl)-1-oxo-3-(pyridin-3-yl)-2-(2,2,2-trifluoroethyl)-1,2,3,4-tetrahydroisoquinoline-4-carboxamide] | 38 nM | 
COc1ccc2c(c1)C(=O)N(CC(C)C)[C@H](c1cccnc1)[C@H]2C(=O)Nc1ccc(F)c(C#N)c1 (racemic) [Example 53, N-(3-cyano-4-fluorophenyl)-2-isobutyl-7-methoxy-1-oxo-3-(pyridin-3-yl)-1,2,3,4-tetrahydroisoquinoline-4-carboxamide] | 150 nM | 
Cn1cc([C@@H]2[C@@H](C(=O)Nc3cccc(C#N)c3)c3ccccc3C(=O)N2CC(F)(F)F)cn1 (racemic) [Example 16, N-(3-cyanophenyl)-3-(1-methyl-1H-pyrazol-4-yl)-1-oxo-2-(2,2,2-trifluoroethyl)-1,2,3,4-tetrahydroisoquinoline-4-carboxamide] | 22 nM | 
N#Cc1cc(NC(=O)[C@H]2c3cc(F)c(F)cc3C(=O)N(CC(F)(F)F)[C@@H]2c2cn[nH]c2)ccc1F (racemic) [Example 59] | 7 nM | 
N#Cc1ccc([C@@H]2[C@@H](C(=O)Nc3ccc(F)c(C#N)c3)c3ccccc3C(=O)N2CC2CC2)s1 (racemic) [Example 54, N-(3-cyano-4-fluorophenyl)-3-(5-cyanothiophen-2-yl)-2-(cyclopropylmethyl)-1-oxo-1,2,3,4-tetrahydroisoquinoline-4-carboxamide] | 11 nM | 
CC(C)CN1C(=O)c2ccccc2[C@H](C(=O)Nc2cccc(OC(F)(F)F)c2)[C@H]1c1cnn(C)c1 (racemic) [Example 27, 2-isobutyl-3-(1-methyl-1H-pyrazol-4-yl)-1-oxo-N-(3-(trifluoromethoxy)phenyl)-1,2,3,4-tetrahydroisoquinoline-4-carboxamide] | 8 nM | 
CC(C)CN1C(=O)c2cc(F)ccc2[C@H](C(=O)Nc2ccc(F)c(C#N)c2)[C@H]1c1cnn(C)c1 (racemic) [Example 45, N-(3-cyano-4-fluorophenyl)-7-fluoro-2-isobutyl-3-(1-methyl-1H-pyrazol-4-yl)-1-oxo-1,2,3,4-tetrahydroisoquinoline-4-carboxamide] | 20 nM | 
CC(C)CN1C(=O)c2ccccc2[C@H](C(=O)Nc2cccc(OC(F)(F)F)c2)[C@H]1c1cccnc1 (racemic) [Example 29, 2-isobutyl-1-oxo-3-(pyridin-3-yl)-N-(3-(trifluoromethoxy)phenyl)-1,2,3,4-tetrahydroisoquinoline-4-carboxamide] | 25 nM | 
O=C(Nc1cccc(OC(F)(F)F)c1)[C@H]1c2ccccc2C(=O)N(CC(F)(F)F)[C@@H]1c1cn[nH]c1 (racemic) [Example 26, 1-oxo-3-(1H-pyrazol-4-yl)-2-(2,2,2-trifluorocthyl)-N-(3-(trifluoromethoxy)phenyl)-1,2,3,4-tetrahydroisoquinoline-4-carboxamide] | 19 nM | 
CC(C)CN1C(=O)c2ccccc2[C@H](C(=O)Nc2ccc(F)c(OC(F)(F)F)c2)[C@H]1c1cn[nH]c1 (racemic) [Example 31, N-(4-fluoro-3-(trifluoromethoxy)phenyl)-2-isobutyl-1-oxo-3-(1H-pyrazol-4-yl)-1,2,3,4-tetrahydroisoquinoline-4-carboxamide] | 13 nM | 
CC(C)CN1C(=O)c2ccccc2[C@H](C(=O)Nc2cc(F)cc(C#N)c2)[C@H]1c1cnn(C)c1 (racemic) [Example 21, N-(3-cyano-5-fluorophenyl)-2-isobutyl-3-(1-methyl-1H-pyrazol-4-yl)-1-oxo-1,2,3,4-tetrahydroisoquinoline-4-carboxamide] | 21 nM | 
